Source: PMC3915720 (Biochemistry, 2013)

Columns and labels:
Test in all cases: X-ray crystal structure, […] Å
Format in all cases: binding
WlaRD (C8J_1081) [1] = biological target: T1, WlaRD (C8J_1081) (Campylobacter jejuni, UniProt Q9ALS6)
WlaRD (C8J_1081) [2] = biological target: T1, WlaRD (C8J_1081); remark: listed apart in the source
WlaRD (C8J_1081) [3] = biological target: T1, WlaRD (C8J_1081); details: complex with N^5-formyl-THF

**Q.** `Nc1nc2c(c(=O)[nH]1)N(C=O)[C@@H](CNc1ccc(C(=O)N[C@@H](CCC(=O)O)C(=O)O)cc1)CN2` [N^5-formyl-THF] was tested. Which “X-ray crystal structure, 1.4 Å (cocrystal)” value (WlaRD (C8J_1081) [1]; complex with dTDP, not catalytically competent cofactor analog) did it give?
**A.** that of the enzyme complexed with N^5-formyl-THF and dTDP

**Q.** How did the “X-ray crystal structure, 1.9 Å (soak, turnover in crystal)” value (WlaRD (C8J_1081) [2]; complex with dTDP-Qui3N (subunit A) or dTDP-Qui3NFo (subunit B)) turn out when `Nc1nc2c(c(=O)[nH]1)N[C@@H](CNc1ccc(C(=O)N[C@@H](CCC(=O)O)C(=O)O)cc1)CN2` [THF] was run?
**A.** In subunit A, THF and dTDP-Qui3N were observed

**Q.** For `Cc1cn([C@H]2C[C@H](O)[C@@H](COP(=O)(O)OP(=O)(O)O[C@H]3O[C@H](C)[C@H](O)[C@H](NC=O)[C@H]3O)O2)c(=O)[nH]c1=O` [dTDP-Fuc3NFo], which “X-ray crystal structure, 1.45 Å (cocrystal)” value (WlaRD (C8J_1081) [3]) is on record?
**A.** to form such a complex in the presence of dTDP-Fuc3NFo as shown

**Q.** `Cc1cn([C@H]2C[C@H](O)[C@@H](COP(=O)(O)OP(=O)(O)O[C@H]3O[C@H](C)[C@@H](O)[C@H](NC=O)[C@H]3O)O2)c(=O)[nH]c1=O` [dTDP-Qui3NFo] was tested. Which “X-ray crystal structure, 1.9 Å (soak, turnover in crystal)” value (WlaRD (C8J_1081) [2]; complex with THF, subunit B) did it give?
**A.** In subunit B, however, the products THF and dTDP-Qui3NFo were present

**Q.** Which “X-ray crystal structure, 1.4 Å (cocrystal)” value (WlaRD (C8J_1081) [1]; complex with N^5-formyl-THF, also with N^10-formyl-THF) does the source give for `Cc1cn([C@H]2C[C@H](O)[C@@H](COP(=O)(O)OP(=O)(O)O)O2)c(=O)[nH]c1=O` [dTDP] here?
**A.** that of the enzyme complexed with N^5-formyl-THF and dTDP
